Counter-ions that a name gives are not always drawn. Like-named read-outs stand apart in the source and are kept apart here.
How the values were obtained:
[1] = tested on: NIH-3T3 cells; assay: qHTS cell viability (CellTiter-Glo, 72 h; primary screen), control cell line; format: cell-based, mouse
[2] = tested on: CRL-7250 cells; assay: as above; format: cell-based
[3] = tested on: VN-MCC cell lines (MCC13, MCC26, UISO); assay: qHTS cell viability, VN-MCC cell lines as a group (mean AUC, VN.MCC.avg); format: cell-based, human
[4] = tested on: HEK293T cells; assay: qHTS cell viability (CellTiter-Glo, 72 h; primary screen), control cell line; format: cell-based, human
[5] = tested on: UISO cells (VN-MCC); assay: qHTS cell viability (CellTiter-Glo, 72 h; primary and follow-up small molecule screen); format: cell-based, human
[6] = tested on: MCC13 cells (VN-MCC); assay: as above; format: cell-based, human
[7] = tested on: HACAT cells; assay: qHTS cell viability (CellTiter-Glo, 72 h; primary screen), control cell line; format: cell-based, human
[8] = tested on: MKL-2 cells (VP-MCC); assay: qHTS cell viability (CellTiter-Glo, 72 h; primary and follow-up small molecule screen); format: cell-based, human
[9] = tested on: MCC cell lines (WAGA, MKL-1, MKL-2, MCC13, MCC26, UISO); assay: qHTS cell viability, all six MCC cell lines as a group (mean AUC, MCC.avg); format: cell-based, human
[10] = tested on: WAGA cells (VP-MCC); assay: qHTS cell viability (CellTiter-Glo, 72 h; primary and follow-up small molecule screen); format: cell-based, human
[11] = tested on: MCC26 cells (VN-MCC); assay: as above; format: cell-based, human
[12] = tested on: VP-MCC cell lines (WAGA, MKL-1, MKL-2); assay: qHTS cell viability, VP-MCC cell lines as a group (mean AUC, VP.MCC.avg); format: cell-based, human
[13] = tested on: six MCC cell lines and four control cell lines; assay: qHTS cell viability, all 10 cell lines screened; format: cell-based
[14] = tested on: MKL-1 cells (VP-MCC); assay: qHTS cell viability (CellTiter-Glo, 72 h; primary and follow-up small molecule screen); format: cell-based, human
[15] = tested on: control cell lines (HACAT, HEK293T, CRL-7250, NIH-3T3); assay: qHTS cell viability, control cell lines as a group (mean AUC, Control.avg); format: cell-based
[16] = MIPE library, 11-point DRC, control cell line, sheet S2E
[17] = MIPE library, Control AUC minus VN-MCC AUC (therapeutic window), sheet S2E
[18] = MIPE library, mean AUC of VN-MCC cell lines, sheet S2E
[19] = MIPE library, 11-point DRC, sheet S2E
[20] = MIPE library, mean AUC of six MCC cell lines, sheet S2E
[21] = MIPE library, Control AUC minus VP-MCC AUC (therapeutic window), sheet S2E
[22] = MIPE library, mean AUC of VP-MCC cell lines, sheet S2E
[23] = MIPE library, Control AUC minus MCC AUC (therapeutic window), sheet S2E
[24] = MIPE library, mean AUC of control cell lines, sheet S2E
[25] = MIPE library, 11-point DRC, control cell line, sheet S2D
[26] = MIPE library, 11-point DRC, sheet S2D

## CN[C@@H]1[C@H](O)[C@H](NC)[C@H]2O[C@@]3(O)C(=O)C[C@@H](C)O[C@H]3O[C@@H]2[C@H]1O.Cl.Cl [Spectinomycin dihydrochloride]
[1]; [16]
  NIH3T3_AUC: 480.157
[1]; area under the dose-response curve, NIH3T3 control cells, AUC<450 = reduced viability
  NIH3T3_AUC: 486.283
[2]; [16]
  CRL7250_AUC: 477.882
[2]; area under the dose-response curve, CRL7250 control cells, AUC<450 = reduced viability
  CRL7250_AUC: 453.169
[3]; [17]
  Control-VN-MCC: 27.501
[3]; [18]
  VN-MCC_Avg_AUC: 445.075
[4]; [16]
  HEK293T_AUC: 472.116
[4]; area under the dose-response curve, HEK293T control cells, AUC<450 = reduced viability
  HEK293T_AUC: 456.43
[5]; [19]
  UISO_AUC: 392.644
[5]; area under the dose-response curve, UISO cells, AUC<450 = reduced viability
  UISO_AUC: 477.843
[6]; [19]
  MCC13_AUC: 461.506
[6]; area under the dose-response curve, MCC13 cells, AUC<450 = reduced viability
  MCC13_AUC: 467.588
[7]; [16]
  HACAT_AUC: 460.149
[7]; area under the dose-response curve, HACAT control cells, AUC<450 = reduced viability
  HACAT_AUC: 475.545
[8]; [19]
  MKL2_AUC: 323.757
[8]; area under the dose-response curve, MKL-2 cells, AUC<450 = reduced viability
  MKL2_AUC: 429.069
[9]; [20]
  MCC_Avg_AUC: 362.621
[10]; [19]
  WAGA_AUC: 274.54
[10]; area under the dose-response curve, WAGA cells, AUC<450 = reduced viability
  WAGA_AUC: 400.83
[11]; [19]
  MCC26_AUC: 481.076
[11]; area under the dose-response curve, MCC26 cells, AUC<450 = reduced viability
  MCC26_AUC: 511.183
[12]; [21]
  Control-VP-MCC: 192.409
[12]; [22]
  VP-MCC_Avg_AUC: 280.167
[13]; [23]
  Control-MCC: 109.955
[14]; [19]
  MKL1_AUC: 242.204
[14]; area under the dose-response curve, MKL-1 cells, AUC<450 = reduced viability
  MKL1_AUC: 379.185
[15]; [24]
  Control_Avg_AUC: 472.576

## C=Cc1c(C)c2cc3nc(cc4[nH]c(cc5nc(cc1[nH]2)C(C)=C5CCC(=O)O)c(CCC(=O)OC)c4C)[C@@]1(C)C3=CC=C(C(=O)OC)[C@H]1C(=O)OC [Verteporfin]
[1]; [25]
  NIH3T3_AUC: 474.512
[1]; [16]
  NIH3T3_AUC: 474.512
[2]; [25]
  CRL7250_AUC: 465.081
[2]; [16]
  CRL7250_AUC: 465.081
[3]; MIPE library, Control AUC minus VN-MCC AUC (therapeutic window), sheet S2D
  Control-VN-MCC: 93.5089
[3]; [17]
  Control-VN-MCC: 93.5089
[3]; MIPE library, mean AUC of VN-MCC cell lines, sheet S2D
  VN-MCC_Avg_AUC: 369.774
[3]; [18]
  VN-MCC_Avg_AUC: 369.774
[4]; [25]
  HEK293T_AUC: 435.497
[4]; [16]
  HEK293T_AUC: 435.497
[5]; [26]
  UISO_AUC: 271.383
[5]; [19]
  UISO_AUC: 271.383
[6]; [26]
  MCC13_AUC: 440.785
[6]; [19]
  MCC13_AUC: 440.785
[7]; [25]
  HACAT_AUC: 478.04
[7]; [16]
  HACAT_AUC: 478.04
[8]; [26]
  MKL2_AUC: 217.219
[8]; [19]
  MKL2_AUC: 217.219
[9]; MIPE library, mean AUC of six MCC cell lines, sheet S2D
  MCC_Avg_AUC: 312.125
[9]; [20]
  MCC_Avg_AUC: 312.125
[10]; [26]
  WAGA_AUC: 266.998
[10]; [19]
  WAGA_AUC: 266.998
[11]; [26]
  MCC26_AUC: 397.153
[11]; [19]
  MCC26_AUC: 397.153
[12]; MIPE library, Control AUC minus VP-MCC AUC (therapeutic window), sheet S2D
  Control-VP-MCC: 208.806
[12]; [21]
  Control-VP-MCC: 208.806
[12]; MIPE library, mean AUC of VP-MCC cell lines, sheet S2D
  VP-MCC_Avg_AUC: 254.477
[12]; [22]
  VP-MCC_Avg_AUC: 254.477
[13]; MIPE library, Control AUC minus MCC AUC (therapeutic window), sheet S2D
  Control-MCC: 151.157
[13]; [23]
  Control-MCC: 151.157
[14]; [26]
  MKL1_AUC: 279.212
[14]; [19]
  MKL1_AUC: 279.212
[15]; MIPE library, mean AUC of control cell lines, sheet S2D
  Control_Avg_AUC: 463.283
[15]; [24]
  Control_Avg_AUC: 463.283

## C#CCN(C)[C@H](C)Cc1ccccc1 [Selegiline hydrochloride]
[1]
  NIH3T3_AUC: 471.047
[2]
  CRL7250_AUC: 455.418
[3]
  Control-VN-MCC: 1.446
  VN-MCC_Avg_AUC: 458.075
[4]
  HEK293T_AUC: 439.797
[5]
  UISO_AUC: 478.192
[6]
  MCC13_AUC: 453.711
[7]
  HACAT_AUC: 471.82
[8]
  MKL2_AUC: 391.028
[9]
  MCC_Avg_AUC: 433.088
[10]
  WAGA_AUC: 431.581
[11]
  MCC26_AUC: 442.321
[12]
  Control-VP-MCC: 51.4197
  VP-MCC_Avg_AUC: 408.101
[13]
  Control-MCC: 26.4329
[14]
  MKL1_AUC: 401.694
[15]
  Control_Avg_AUC: 459.521

## O=C(CCCCCCCCC#CI)Oc1ccccc1 [Phenyl 11-iodo-10-undecynoate]
[1]; NPC library, qHTS dose-response AUC, NIH3T3 control
  NIH3T3_AUC: 495.803
[2]; NPC library, qHTS dose-response AUC, CRL7250 control
  CRL7250_AUC: 487.776
[3]; NPC library, mean AUC of VN-MCC cell lines
  VN-MCC_Avg_AUC: 450.746
[3]; NPC library, therapeutic window: Control avg AUC minus VN-MCC avg AUC
  Control-VN-MCC: 36.2708
[4]; NPC library, qHTS dose-response AUC, HEK293T control
  HEK293T_AUC: 475.205
[5]; NPC library, qHTS dose-response AUC, UISO
  UISO_AUC: 437.546
[6]; NPC library, qHTS dose-response AUC, MCC13
  MCC13_AUC: 470.776
[7]; NPC library, qHTS dose-response AUC, HACAT control
  HACAT_AUC: 489.285
[8]; NPC library, qHTS dose-response AUC, MKL2
  MKL2_AUC: 402.29
[9]; NPC library, mean AUC of six MCC cell lines
  MCC_Avg_AUC: 428.115
[10]; NPC library, qHTS dose-response AUC, WAGA
  WAGA_AUC: 406.191
[11]; NPC library, qHTS dose-response AUC, MCC26
  MCC26_AUC: 443.917
[12]; NPC library, mean AUC of VP-MCC cell lines
  VP-MCC_Avg_AUC: 405.485
[12]; NPC library, therapeutic window: Control avg AUC minus VP-MCC avg AUC
  Control-VP-MCC: 81.5325
[13]; NPC library, therapeutic window: Control avg AUC minus MCC avg AUC
  Control-MCC: 58.9016
[14]; NPC library, qHTS dose-response AUC, MKL1
  MKL1_AUC: 407.973
[15]; NPC library, mean AUC of control cell lines
  Control_Avg_AUC: 487.017

Reference: publication PMC11822212, “High-throughput screening identifies Aurora kinase B as a critical therapeutic target for Merkel cell carcinoma” (Nature Communications, 2025)
